# Results as given in patent US5446035A, “20-methyl-substituted vitamin D derivatives” (Schering Aktiengesellschaft, priority 1991, dated 1995).
# Key:
# HL-60 cells = experiment: induction of HL-60 cell differentiation to macrophages (NBT reduction); format: cell-based, human; settings: 96 hours incubation, formazan at 650 nm
# Protocol: It is known in the literature (Mangelsdorf, D. J. et al., J. Cell. Biol. 98: 391-398 (1984)) that the treatment of human leukemia cells (promyelocyte cell line HL-60, available, e.g., from the ATCC, Rockville, Md.) in vitro with calcitriol induces the differentiation of the cells to macrophages.
# HL-60 cells are cultivated in tissue culture medium (RPMI - 10% fetal calf serum) at 37° C. in an atmosphere of 5% CO2 in air.
# For substance testing, the cells are centrifuged and 2.8×10^5 cells/ml are suspended in phenol red-free tissue culture medium. The test substances are dissolved in ethanol and diluted with tissue culture medium without phenol red to achieve the desired concentration. The diluted test substances are mixed with the cell suspension in a ratio of 1:10 and 100 μl each of this cell suspension mixed with substance is pipetted in a depression of a 96-hole plate. As a control, a cell suspension is prepared similarly, but only with the solvent. […]
# To dissolve the formed intracellular formazan crystals, 100 μl of potassium hydroxide (2 mol/l) and 100 μl of dimethylsulfoxide are pipetted into each depression and ultrasonically irradiated for 1 minute. The concentration of formazan is spectrophotometrically measured at 650 nm.
# As a measurement for the differentiation induction of HL 60 cells to macrophages, the concentration of formed formazan is determined. […]
# [1] = tested on: human peripheral blood mononuclear cells; experiment: PHA-stimulated lymphocyte proliferation ([3H]-thymidine incorporation); format: cell-based; settings: PBMC, PHA 5 μg/well, 96 hours after stimulation, read-out: concentration inhibiting lymphocyte proliferation by 50%
# Protocol: At the time of seeding, cells were treated with phytohemagglutinin (PHA) 5 μg/well. The test compound was added at the same time as PHA in various concentration. Lymphocyte proliferation was determined 96 hours after stimulation by incorporation of [^3 H]-thymidine. For that, [^3 H]-thymidine (0.2 μCi/well) was added for the last 6 hours of culture, then medium and cells were filtrated through a glass fiber filter. Radioactivity of the filters were determined in a β-counter.
# [2] = tested on: IL-2 secretion, human peripheral blood mononuclear cells; experiment: IL-2 secretion by PHA-stimulated lymphocytes (ELISA); format: cell-based; settings: compared with calcitriol; PHA 20 μg/well, 24 hours
# Protocol: For determination of IL-2 secretion, human peripheral blood mononuclear cells were prepared as above, seeded at a density of 2×10^6 cells/well×200 μl into 24-well-plates and cultured in RPMI 1640 in the presence of 2% fetal calf serum. At the time of seeding, PHA (20 μg/well) and the test compound was added. 24 hours after stimulation, cell cultures were harvested, medium separated from cells by centrifugation, and IL-2 concentration in the medium determined by an ELISA based on a polyclonal antibody IL-2.
Structure (SMILES),relative activity in inducing differentiation: ED50 test substance/ED50 calcitriol (HL-60 cells),IC50 [1] [nM],concentration range at which inhibition of IL-2 secretion starts [2]
"C=C1/C(=C\C=C2/CCC[C@]3(C)[C@@H](C(C)(C)/C=C/C=C/C(C)(C)O)CC[C@@H]23)C[C@@H](O)C[C@@H]1O [1(S),3(R)-Dihydroxy-20-(5-hydroxy-5-methyl-hexa-1E,3E-dien-1-yl)-20-methyl-9,10-secopregna-5Z,7E,10(19)-triene]",~0.001,,
"C=C1/C(=C\C=C2/CCC[C@]3(C)[C@@H]([C@H](C)CCCC(C)(C)O)CC[C@@H]23)C[C@@H](O)C[C@@H]1O [1,25-dihydroxy-vitamin D3, 1α,25-dihydroxycholecalciferol, reference compound]",,0.44,
"C=C1/C(=C\C=C2/CCC[C@]3(C)[C@@H](C(C)(C)CC=CC(C)(C)O)CC[C@@H]23)C[C@@H](O)C[C@@H]1O [ZK 157202, 1α,25-dihydroxy-20-methyl-23,24-dehydrovitamin D3]",,0.013,about the same as for calcitriol
